Laboratory results as given in ChEMBL document CHEMBL1909046, “DrugMatrix in vitro pharmacology data”.

Assays:
[1] = target: T1, Alpha-2C adrenergic receptor (Homo sapiens, UniProt P18825); assay: DRUGMATRIX: Adrenergic Alpha-2C radioligand binding (ligand: [3H] MK-912); assay type: cell membranes, Sf9, Membrane
T1 sequence (P18825 whole entry): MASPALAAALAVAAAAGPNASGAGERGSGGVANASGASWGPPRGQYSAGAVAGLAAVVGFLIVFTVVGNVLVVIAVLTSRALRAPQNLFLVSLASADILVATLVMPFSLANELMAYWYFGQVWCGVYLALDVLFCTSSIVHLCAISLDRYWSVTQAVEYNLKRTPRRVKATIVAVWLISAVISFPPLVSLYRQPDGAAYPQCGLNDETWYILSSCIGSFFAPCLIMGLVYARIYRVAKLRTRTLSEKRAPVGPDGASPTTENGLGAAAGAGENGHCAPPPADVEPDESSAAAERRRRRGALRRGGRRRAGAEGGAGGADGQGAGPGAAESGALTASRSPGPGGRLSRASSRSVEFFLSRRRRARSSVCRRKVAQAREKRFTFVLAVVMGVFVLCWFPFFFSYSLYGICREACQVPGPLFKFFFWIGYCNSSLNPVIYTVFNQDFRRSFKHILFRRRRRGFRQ

[2] = target: Aldo-keto reductase family 1 member B1 (Rattus norvegicus, UniProt P07943); assay type: tissue-based, Lens of camera-type eye;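 note: inhibition of aldose reductase enzyme activity, measured with DL-glyceraldehyde as the substrate; in other assays of this panel Not Active means under 50% inhibition at 10 µM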
[3] = DRUGMATRIX: Glutamate, NMDA, Agonism radioligand binding (ligand: [3H] CGP-39653); assay type: cell membranes, Rattus norvegicus, Wistar, Cerebral cortex, Membrane; conditions: Not Active = under 50% inhibition at 10 µM
[4] = target: T2, Muscarinic acetylcholine receptor M4 (Homo sapiens, UniProt P08173); assay type: cell membranes, CHO-K1, Membrane; conditions: cho-k1; note: in other assays of this panel Not Active means under 50% inhibition at 10 µM
T2 sequence (P08173 whole entry): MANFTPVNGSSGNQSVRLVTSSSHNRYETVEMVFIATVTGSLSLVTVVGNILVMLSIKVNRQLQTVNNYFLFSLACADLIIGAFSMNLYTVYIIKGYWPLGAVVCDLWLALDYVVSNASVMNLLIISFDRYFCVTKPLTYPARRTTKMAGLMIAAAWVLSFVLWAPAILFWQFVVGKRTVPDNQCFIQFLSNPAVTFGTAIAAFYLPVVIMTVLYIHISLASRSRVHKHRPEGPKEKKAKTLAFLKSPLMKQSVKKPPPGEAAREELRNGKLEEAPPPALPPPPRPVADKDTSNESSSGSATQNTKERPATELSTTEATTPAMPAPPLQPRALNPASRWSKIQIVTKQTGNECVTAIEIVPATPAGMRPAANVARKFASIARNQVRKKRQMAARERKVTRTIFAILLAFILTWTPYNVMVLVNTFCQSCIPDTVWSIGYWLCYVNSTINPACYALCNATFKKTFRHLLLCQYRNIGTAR

[5] = DRUGMATRIX: Nicotinic Acetylcholine radioligand binding (ligand: [125I] Epibatidine); assay type: cell membranes, Membrane; conditions: imr-32; Not Active = under 50% inhibition at 10 µM
[6] = DRUGMATRIX: Potassium Channel [KATP] radioligand binding (ligand: [3H] Glyburide); assay type: cell membranes, Membrane; conditions: hit-t15; Not Active = under 50% inhibition at 10 µM
[7] = target: T3, Cathepsin G (Homo sapiens, UniProt P08311); assay type: tissue-based; conditions: neutrophil;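 note: inhibition of Cathepsin G enzyme activity, tested on an AMC-conjugated peptide substrate; in other assays of this panel Not Active means under 50% inhibition at 10 µM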
T3 sequence (P08311 whole entry): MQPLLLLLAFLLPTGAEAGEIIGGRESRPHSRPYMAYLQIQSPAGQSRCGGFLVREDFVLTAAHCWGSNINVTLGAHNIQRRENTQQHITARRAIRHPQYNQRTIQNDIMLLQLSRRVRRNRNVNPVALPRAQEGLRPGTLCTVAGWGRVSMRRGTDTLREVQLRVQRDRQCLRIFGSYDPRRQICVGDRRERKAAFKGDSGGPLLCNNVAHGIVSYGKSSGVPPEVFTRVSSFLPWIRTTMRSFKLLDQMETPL

With CC[C@@H](C(=O)[C@@H](C)[C@@H](O)[C@H](C)[C@@H]1O[C@@H]([C@@H](CC)C(=O)O)CC[C@@H]1C)[C@H]1O[C@]2(C=C[C@@H](O)[C@]3(CC[C@@](C)([C@H]4CC[C@](O)(CC)[C@H](C)O4)O3)O2)[C@H](C)C[C@@H]1C [SALINOMYCIN] the IC50 ([1]; sf9) was “Not Active”, the IC50 [2] was “Not Active” and the IC50 [3] was “Not Active”. For the same compound, the Ki [3] was “Not Active”, the IC50 [4] was “Not Active” and the IC50 [5] was “Not Active”. For the same compound, the Ki [5] was “Not Active”, the IC50 [6] was “Not Active” and the Ki [6] was “Not Active”. For the same compound, the IC50 [7] was “Not Active”.

For O=C(Oc1ccccc1C(=O)O)c1ccccc1O [SALSALATE], the IC50 ([1]; sf9) was “Not Active”, the IC50 [2] was “Not Active” and the IC50 [3] was “Not Active”. The Ki [3] was “Not Active”, the IC50 [4] was “Not Active” and the IC50 [5] was “Not Active”. The Ki [5] was “Not Active”, the IC50 [6] was “Not Active” and the Ki [6] was “Not Active”. The IC50 [7] was “Not Active”.

For O=C(O)c1cn(-c2ccc(F)cc2)c2cc(N3CCNCC3)c(F)cc2c1=O [SARAFLOXACIN], the IC50 ([1]; sf9) was “Not Active”, the IC50 [2] was “Not Active” and the IC50 [3] was “Not Active”. The Ki [3] was “Not Active”, the IC50 [4] was “Not Active” and the IC50 [5] was “Not Active”. The Ki [5] was “Not Active”, the IC50 [6] was “Not Active” and the Ki [6] was “Not Active”. The IC50 [7] was “Not Active”.

For CC(C)NCC(O)c1ccc(NS(C)(=O)=O)cc1 (centres undefined) [SOTALOL], the IC50 ([1]; sf9) was “Not Active”, the IC50 [2] was “Not Active” and the IC50 [3] was “Not Active”. The Ki [3] was “Not Active”, the IC50 [4] was “Not Active” and the IC50 [5] was “Not Active”. For the same compound, the Ki [5] was “Not Active”, the IC50 [6] was “Not Active” and the Ki [6] was “Not Active”. The IC50 [7] was “Not Active”.

With O=C1C(CC[S+]([O-])c2ccccc2)C(=O)N(c2ccccc2)N1c1ccccc1 (centres undefined) [SULFINPYRAZONE] the IC50 ([1]; sf9) was “Not Active”, the IC50 [2] was “Not Active” and the IC50 [3] was “Not Active”. The Ki [3] was “Not Active”, the IC50 [4] was “Not Active” and the IC50 [5] was “Not Active”. The Ki [5] was “Not Active”, the IC50 [6] was “Not Active” and the Ki [6] was “Not Active”. The IC50 [7] was “Not Active”.

In the case of NC(=O)N1C(=O)/C(=C(\O)c2cccs2)c2cc(Cl)ccc21 [TENIDAP], the IC50 ([1]; sf9) is reported as “Not Active”, the IC50 [2] is reported as “Not Active” and the IC50 [3] is reported as “Not Active”. For the same compound, the Ki [3] was “Not Active”, the IC50 [4] was “Not Active” and the IC50 [5] was “Not Active”. The Ki [5] was “Not Active”, the IC50 [6] was “Not Active” and the Ki [6] was “Not Active”. The IC50 [7] was “Not Active”.

With CN(C/C=C/C#CC(C)(C)C)Cc1cccc2ccccc12 [TERBINAFINE] the IC50 ([1]; sf9) was “Not Active”, the IC50 [2] was “Not Active” and the IC50 [3] was “Not Active”. For the same compound, the Ki [3] was “Not Active”, the IC50 [4] was “Not Active” and the IC50 [5] was “Not Active”. The Ki [5] was “Not Active”, the IC50 [6] was “Not Active” and the Ki [6] was “Not Active”. For the same compound, the IC50 [7] was “Not Active”.

For CCCCNc1ccc(C(=O)OCCN(C)C)cc1 [TETRACAINE], the IC50 ([1]; sf9) was “Not Active”, the IC50 [2] was “Not Active” and the IC50 [3] was “Not Active”. The Ki [3] was “Not Active”, the IC50 [4] was “Not Active” and the IC50 [5] was “Not Active”. For the same compound, the Ki [5] was “Not Active”, the IC50 [6] was “Not Active” and the Ki [6] was “Not Active”. For the same compound, the IC50 [7] was “Not Active”.

In the case of Cn1c(=O)c2nc[nH]c2n(C)c1=O.O [THEOPHYLLINE], the IC50 ([1]; sf9) is reported as “Not Active”, the IC50 [2] is reported as “Not Active” and the IC50 [3] is reported as “Not Active”. For the same compound, the Ki [3] was “Not Active”, the IC50 [4] was “Not Active” and the IC50 [5] was “Not Active”. The Ki [5] was “Not Active”, the IC50 [6] was “Not Active” and the Ki [6] was “Not Active”. For the same compound, the IC50 [7] was “Not Active”.

In the case of CS(=O)(=O)c1ccc([C@@H](O)[C@@H](CO)NC(=O)C(Cl)Cl)cc1 [THIAMPHENICOL], the IC50 ([1]; sf9) is reported as “Not Active”, the IC50 [2] is reported as “Not Active” and the IC50 [3] is reported as “Not Active”. The Ki [3] was “Not Active”, the IC50 [4] was “Not Active” and the IC50 [5] was “Not Active”. The Ki [5] was “Not Active”, the IC50 [6] was “Not Active” and the Ki [6] was “Not Active”. The IC50 [7] was “Not Active”.

For CCN(CC)CCNC(=O)c1cc(S(C)(=O)=O)ccc1OC [TIAPRIDE], the IC50 ([1]; sf9) was “Not Active”, the IC50 [2] was “Not Active” and the IC50 [3] was “Not Active”. For the same compound, the Ki [3] was “Not Active”, the IC50 [4] was “Not Active” and the IC50 [5] was “Not Active”. The Ki [5] was “Not Active”, the IC50 [6] was “Not Active” and the Ki [6] was “Not Active”. The IC50 [7] was “Not Active”.

For Clc1ccccc1CN1CCc2sccc2C1 [TICLOPIDINE], the IC50 ([1]; read-out: IC50) was 1170 nM, the Ki ([1]; read-out: Ki) was 171 nM and the IC50 [2] was “Not Active”. For the same compound, the IC50 [3] was “Not Active”, the Ki [3] was “Not Active” and the IC50 [4] was “Not Active”. The IC50 [5] was “Not Active”, the Ki [5] was “Not Active” and the IC50 [6] was “Not Active”. For the same compound, the Ki [6] was “Not Active” and the IC50 [7] was “Not Active”.

For NC1CCN(c2nc3c(cc2F)c(=O)c(C(=O)O)cn3-c2ccc(F)cc2F)C1 (centres undefined) [TOSUFLOXACIN], the IC50 ([1]; sf9) was “Not Active”, the IC50 [2] was “Not Active” and the IC50 [3] was “Not Active”. The Ki [3] was “Not Active”, the IC50 [4] was “Not Active” and the IC50 [5] was “Not Active”. For the same compound, the Ki [5] was “Not Active”, the IC50 [6] was “Not Active” and the Ki [6] was “Not Active”. The IC50 [7] was “Not Active”.

For O=C(Nc1ccc(Br)cc1)c1cc(Br)cc(Br)c1O [TRIBROMSALAN], the IC50 ([1]; sf9) was “Not Active”, the IC50 [2] was “Not Active” and the IC50 [3] was “Not Active”. The Ki [3] was “Not Active”, the IC50 [4] was “Not Active” and the IC50 [5] was “Not Active”. The Ki [5] was “Not Active”, the IC50 [6] was “Not Active” and the Ki [6] was “Not Active”. For the same compound, the IC50 [7] was “Not Active”.

In the case of CC(c1cc2ccccc2s1)N(O)C(N)=O (centres undefined) [ZILEUTON], the IC50 ([1]; sf9) is reported as “Not Active”, the IC50 [2] is reported as “Not Active” and the IC50 [3] is reported as “Not Active”. For the same compound, the Ki [3] was “Not Active”, the IC50 [4] was “Not Active” and the IC50 [5] was “Not Active”. The Ki [5] was “Not Active”, the IC50 [6] was “Not Active” and the Ki [6] was “Not Active”. For the same compound, the IC50 [7] was “Not Active”.

With MANGANESE CHLORIDE ANHYDROUS the IC50 ([1]; sf9) was “Not Active”, the Ki ([1]; sf9) was “Not Active” and the IC50 [2] was “Not Active”. For the same compound, the Ki [2] was “Not Active”, the IC50 [3] was “Not Active” and the Ki [3] was “Not Active”. For the same compound, the IC50 [4] was “Not Active”, the Ki [4] was “Not Active” and the IC50 [5] was “Not Active”. For the same compound, the Ki [5] was “Not Active”, the IC50 [6] was “Not Active” and the Ki [6] was “Not Active”. The IC50 [7] was “Not Active” and the Ki [7] was “Not Active”.

In the case of SODIUM ORTHOVANAD, the IC50 ([1]; sf9) is reported as “Not Active”, the Ki ([1]; sf9) is reported as “Not Active” and the IC50 [2] is reported as “Not Active”. The Ki [2] was “Not Active”, the IC50 [3] was “Not Active” and the Ki [3] was “Not Active”. The IC50 [4] was “Not Active”, the Ki [4] was “Not Active” and the IC50 [5] was “Not Active”. The Ki [5] was “Not Active”, the IC50 [6] was “Not Active” and the Ki [6] was “Not Active”. The IC50 [7] was “Not Active” and the Ki [7] was “Not Active”.
